Data set [1] deals with MCF7. The data set can be described thus: Antiproliferative activity against human MCF7 cells assessed as cell growth inhibition at 20 uM incubated for 48 hrs by MTT assay. The format is functional. Background: Tetrazolium assays rely on reduction of a dye to a coloured formazan, in cell work by metabolically active cells.
For data set [2], the system named is A549. Put plainly: Antiproliferative activity against human A549 cells assessed as cell growth inhibition at 20 uM incubated for 48 hrs by MTT assay. The format is functional.
The test system of data set [3] is HCT-116. The data set can be described thus: Antiproliferative activity against human HCT-116 cells assessed as cell growth inhibition at 20 uM incubated for 48 hrs by MTT assay. The format is functional.
Data set [4] deals with SK-MEL-28. The data set can be described thus: Antiproliferative activity against human SK-MEL-28 cells assessed as cell growth inhibition at 20 uM incubated for 48 hrs by MTT assay. The format is functional.
For data set [5], the system named is SK-OV-3. The data set can be described thus: Antiproliferative activity against human SK-OV-3 cells assessed as reduction in cell viability incubated for 24 hrs by MTT assay. Conditions: SK-OV-3, 24 h. It is filed as functional, cell-based.
In data set [6] the test system is MCF7. Put plainly: Antiproliferative activity against human MCF7 cells assessed as reduction in cell viability incubated for 24 hrs by MTT assay. The conditions noted are these: MCF7, 24 h. The format is functional, cell-based.
The test system of data set [7] is MDA-MB-231. Put plainly: Antiproliferative activity against human MDA-MB-231 cells assessed as reduction in cell viability incubated for 24 hrs by MTT assay. The conditions noted are these: MDA-MB-231, 24 h. It is filed as functional, cell-based.
The test system of data set [8] is A2780S. Put plainly: Antiproliferative activity against human A2780S cells assessed as reduction in cell viability incubated for 24 hrs by MTT assay. The format is functional, cell-based.
The nature of data set [9]: Solubility in human plasma at pH 7.2 to 7.8 incubated for 4 hrs by HPLC analysis. The format is ADME, cell-free.
Data set [10] deals with A549. Put plainly: Antiproliferative activity against human A549 cells assessed as cell growth inhibition incubated for 48 hrs by MTT assay. The format is functional, cell-based. The conditions noted are these: A549, 48 h.
The nature of data set [11]: Cytotoxicity against human HaCaT cells assessed as cell growth inhibition incubated for 48 hrs by MTT assay. The format is toxicity, cell-based.
In data set [12] the test system is MCF7. Put plainly: Antiproliferative activity against human MCF7 cells assessed as cell growth inhibition incubated for 48 hrs by MTT assay. The format is functional, cell-based. Conditions: MCF7, 48 h.
Data set [13] concerns SK-MEL-28. The data set can be described thus: Antiproliferative activity against human SK-MEL-28 cells assessed as cell growth inhibition incubated for 48 hrs by MTT assay. It is filed as functional, cell-based. Conditions: SK-MEL-28, 48 h.
For data set [14], the target named is T1, Epidermal growth factor receptor (Homo sapiens, UniProt P00533). The data set can be described thus: Inhibition of EGFR (unknown origin) using poly E4Y1 and ATP as substrate incubated for 60 mins by ADP-Glo kinase assay.
Data set [15] relates to HCT-116. The data set can be described thus: Antiproliferative activity against human HCT-116 cells assessed as cell growth inhibition incubated for 48 hrs by MTT assay. The conditions noted are these: HCT-116, 48 h. The format is functional, cell-based.
The target in data set [16] is T1, Epidermal growth factor receptor. The data set can be described thus: Inhibition of EGFR (unknown origin).
Data set [17] concerns the target Epidermal growth factor receptor (Homo sapiens, UniProt P00533, L858R/T790M). Put plainly: Inhibition of EGFR T790M/L858R mutant (unknown origin).
Data set [18] can be described thus: Cytotoxicity against human L02 cells assessed as reduction in cell viability. The format is toxicity, cell-based.
Data set [19] in a line: Selectivity index, ratio of IC50 for cytotoxicity against human L02 cells to IC50 for antiproliferative activity against human A549 cells. It is filed as toxicity, cell-based. Conditions: L02 cells and A549 cells, read-out: Ratio IC50.
The test system of data set [20] is A549. The data set can be described thus: Antiproliferative activity against human A549 cells assessed as reduction in cell viability. The format is functional, cell-based.

Structures are written as SMILES. Values after ≈ are worked out from the molar mass of the structure shown.

T1 sequence (P00533 whole entry): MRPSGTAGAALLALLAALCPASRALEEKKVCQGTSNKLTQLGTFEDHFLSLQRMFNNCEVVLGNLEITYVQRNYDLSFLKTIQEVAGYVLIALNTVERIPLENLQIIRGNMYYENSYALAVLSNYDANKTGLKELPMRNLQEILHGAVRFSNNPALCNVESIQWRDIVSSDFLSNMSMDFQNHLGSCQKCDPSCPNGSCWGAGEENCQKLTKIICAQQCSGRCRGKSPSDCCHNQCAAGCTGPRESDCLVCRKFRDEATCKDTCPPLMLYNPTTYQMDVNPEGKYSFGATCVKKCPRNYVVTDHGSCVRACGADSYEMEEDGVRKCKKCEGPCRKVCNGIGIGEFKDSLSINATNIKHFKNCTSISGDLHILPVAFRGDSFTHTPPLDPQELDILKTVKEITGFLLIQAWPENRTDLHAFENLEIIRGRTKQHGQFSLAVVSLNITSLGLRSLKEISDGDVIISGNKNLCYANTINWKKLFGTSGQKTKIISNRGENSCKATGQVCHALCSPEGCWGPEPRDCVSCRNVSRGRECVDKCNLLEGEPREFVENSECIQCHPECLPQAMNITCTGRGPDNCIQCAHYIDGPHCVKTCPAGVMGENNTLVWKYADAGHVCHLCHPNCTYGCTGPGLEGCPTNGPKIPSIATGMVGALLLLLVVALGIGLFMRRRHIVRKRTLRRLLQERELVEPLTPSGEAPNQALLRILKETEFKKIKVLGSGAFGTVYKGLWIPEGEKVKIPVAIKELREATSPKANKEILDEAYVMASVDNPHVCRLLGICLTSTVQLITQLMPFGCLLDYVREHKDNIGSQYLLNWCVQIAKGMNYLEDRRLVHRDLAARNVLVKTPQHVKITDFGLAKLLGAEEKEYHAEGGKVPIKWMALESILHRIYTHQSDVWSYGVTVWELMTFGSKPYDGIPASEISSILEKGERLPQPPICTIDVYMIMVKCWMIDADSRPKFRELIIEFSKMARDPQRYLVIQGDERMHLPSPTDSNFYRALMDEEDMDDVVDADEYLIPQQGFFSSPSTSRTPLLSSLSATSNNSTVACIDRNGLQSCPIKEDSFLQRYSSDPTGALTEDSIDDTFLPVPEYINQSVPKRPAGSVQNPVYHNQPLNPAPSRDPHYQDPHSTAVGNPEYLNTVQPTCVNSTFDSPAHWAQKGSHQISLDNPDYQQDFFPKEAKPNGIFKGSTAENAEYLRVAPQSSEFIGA
Epidermal growth factor receptor (Homo sapiens, UniProt P00533, L858R/T790M), sequence (P00533 25-1210 T790M/L858R limits assumed): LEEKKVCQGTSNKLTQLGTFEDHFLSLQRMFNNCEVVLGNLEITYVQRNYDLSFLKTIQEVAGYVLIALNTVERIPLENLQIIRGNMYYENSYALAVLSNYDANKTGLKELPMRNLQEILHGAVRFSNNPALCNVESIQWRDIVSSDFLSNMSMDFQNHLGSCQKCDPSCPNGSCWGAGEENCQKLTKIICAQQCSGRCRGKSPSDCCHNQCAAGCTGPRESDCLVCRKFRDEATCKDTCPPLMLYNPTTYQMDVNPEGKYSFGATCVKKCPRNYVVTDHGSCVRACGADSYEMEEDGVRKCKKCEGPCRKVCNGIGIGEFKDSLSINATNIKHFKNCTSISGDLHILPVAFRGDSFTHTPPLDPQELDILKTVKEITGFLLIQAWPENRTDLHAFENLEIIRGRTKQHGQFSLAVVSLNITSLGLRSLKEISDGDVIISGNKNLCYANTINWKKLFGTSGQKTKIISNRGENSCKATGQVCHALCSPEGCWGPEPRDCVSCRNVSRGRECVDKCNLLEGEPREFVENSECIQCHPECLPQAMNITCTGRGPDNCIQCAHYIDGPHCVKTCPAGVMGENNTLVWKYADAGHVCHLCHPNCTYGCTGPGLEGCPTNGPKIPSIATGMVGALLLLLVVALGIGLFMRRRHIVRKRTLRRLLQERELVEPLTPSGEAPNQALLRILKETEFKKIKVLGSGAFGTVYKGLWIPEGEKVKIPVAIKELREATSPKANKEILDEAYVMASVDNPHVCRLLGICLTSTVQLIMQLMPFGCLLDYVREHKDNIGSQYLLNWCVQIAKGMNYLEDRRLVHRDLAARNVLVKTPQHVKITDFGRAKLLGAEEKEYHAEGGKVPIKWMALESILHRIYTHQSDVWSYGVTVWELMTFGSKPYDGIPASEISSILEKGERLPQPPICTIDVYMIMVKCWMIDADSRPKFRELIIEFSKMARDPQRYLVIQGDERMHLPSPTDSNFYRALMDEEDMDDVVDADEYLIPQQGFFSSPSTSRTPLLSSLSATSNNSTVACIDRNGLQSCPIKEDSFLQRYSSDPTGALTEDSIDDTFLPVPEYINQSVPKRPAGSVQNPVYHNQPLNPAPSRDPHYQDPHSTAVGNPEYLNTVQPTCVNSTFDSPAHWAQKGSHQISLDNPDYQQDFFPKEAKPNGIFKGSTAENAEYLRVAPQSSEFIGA

Turning to `Cc1sc([Se]c2sc(C)c(-c3cccc(Br)c3)c2C(=O)NC(Cc2ccccc2)C(=O)N2CCCC2)c(C(=O)NC(Cc2ccccc2)C(=O)N2CCCC2)c1-c1cccc(Br)c1` (stereo not drawn), the inhibition at 20 µM in data set [1] came to 26%; in data set [2], 14%; in data set [3], 9%; in [4] it was 18%.

With `COc1ccc(/C=C/C(=O)c2ccc(OC)c3c2OC(C)(C)C=C3)cc1OC(=O)CNC(=O)OC(C)(C)C`, the half-inhibitory concentration (IC50) in [5], in data set [6], in data set [7] and in [8] was 0.12 µM each time. This compound also showed a solubility at 4 h in data set [9] of 2980 µg/mL (≈ 5.69 mM).

On to `Cc1sc([Se]c2sc(C)c(-c3cccc(Cl)c3)c2C(=O)NC(C(=O)N2CCCC2)C(C)C)c(C(=O)NC(C(=O)N2CCCC2)C(C)C)c1-c1cccc(Cl)c1` (stereo not drawn), for which the inhibition at 20 µM was 64% in data set [1], 36% in data set [2], 47% in [3] and under 10% in [4].

For the compound `COc1ccc(/C=C/C(=O)c2ccc(OC)c3c2OC(C)(C)C=C3)cc1O`, the IC50 in data set [5], in data set [6], in [7] and in [8] was 0.42 µM throughout. This compound also showed a solubility at 4 h in data set [9] of 146 µg/mL (≈ 0.398 mM).

Consider `Cc1sc([Se]c2sc(C)c(-c3cccc(F)c3)c2C(=O)NC(Cc2ccccc2)C(=O)N2CCCC2)c(C(=O)NC(Cc2ccccc2)C(=O)N2CCCC2)c1-c1cccc(F)c1` (stereo not drawn), for which the inhibition at 20 µM is 3% in [1], 14% in data set [2], 10% in data set [3] and under 10% in [4].

Take `Cc1sc([Se]c2sc(C)c(-c3cccc(Cl)c3)c2C(=O)NC(CO)C(=O)N2CCCC2)c(C(=O)NC(CO)C(=O)N2CCCC2)c1-c1cccc(Cl)c1` (stereo not drawn): the half-maximal inhibitory concentration (IC50) in data set [10] was determined as 15.7 µM; in data set [12] it was 11.2 µM; in data set [13], 13.8 µM; in data set [14], 0.727 µM; in [15] it was 6.83 µM. Moreover, the half-maximal inhibitory concentration (IC50) at 48 h in data set [11] worked out at 31.8 µM. Moreover, the inhibition at 20 µM came out at 64% in data set [1], 86% in [2], 75% in data set [3] and 66% in data set [4].

As for `Cc1sc([Se]c2sc(C)c(-c3cccc(F)c3)c2C(=O)NC(C(=O)N2CCCC2)C(C)C)c(C(=O)NC(C(=O)N2CCCC2)C(C)C)c1-c1cccc(F)c1` (stereo not drawn), the inhibition at 20 µM is 58% in data set [1], 35% in data set [2], 63% in data set [3] and 36% in data set [4].

Take `Cc1sc(Br)c(C(=O)NCC(=O)N2CCCC2)c1-c1cccc(F)c1`: the IC50 in [10] worked out at 42.6 µM; in [12], 43.7 µM; in data set [13], 40.1 µM; in data set [15] it was 39 µM.

Regarding `Cc1sc([Se]c2sc(C)c(-c3cccc(Br)c3)c2C(=O)NC(C(=O)N2CCCC2)C(C)C)c(C(=O)NC(C(=O)N2CCCC2)C(C)C)c1-c1cccc(Br)c1` (stereo not drawn), the inhibition at 20 µM was 72% in [1], 44% in data set [2], 51% in data set [3] and 34% in [4].

On to `c1ccc2c(c1)CCN2c1ncnc2cc3c(cc12)NCN3CCN1CCCC1`, for which the midpoint of inhibition in data set [16], the IC50, lay at 0.032 µM.

Consider `Cc1sc(Br)c(C(=O)NC(CO)C(=O)N2CCCC2)c1-c1cccc(Br)c1` (stereo not drawn), for which the IC50 in data set [10] turned out to be 28.8 µM; in data set [12] it was 32.7 µM; in [13], 54.6 µM; in [15], 24.7 µM.

For `Cc1sc([Se]c2sc(C)c(-c3cccc(F)c3)c2C(=O)NC(CC(C)C)C(=O)N2CCCC2)c(C(=O)NC(CC(C)C)C(=O)N2CCCC2)c1-c1cccc(F)c1` (stereo not drawn), the inhibition at 20 µM in data set [1] was 70%; in data set [2], 52%; in data set [3], 57%; in [4], 18%.

With `Cc1sc([Se]c2sc(C)c(-c3cccc(F)c3)c2C(=O)NCC(=O)N2CCCC2)c(C(=O)NCC(=O)N2CCCC2)c1-c1cccc(F)c1`, the IC50 amounted to 17.4 µM in data set [10], 13.4 µM in data set [12], 11.5 µM in data set [13] and 9.22 µM in data set [15]. Besides, the concentration for half-maximal inhibition (IC50) at 48 h in data set [11] was determined as 24.7 µM. In addition, the inhibition at 20 µM in data set [1] worked out at 88%; in data set [2] it was 79%; in [3], 73%; in data set [4], 70%.

Regarding `O=C(N/N=C/c1cnc(N2CCCC2)nc1)Nc1cc2c(Nc3ccc(F)c(Cl)c3)ncnc2cc1O[C@@H]1CCOC1`, the IC50 in [17] is 0.0084 µM; in data set [16], 0.0063 µM.

For `Cc1sc([Se]c2sc(C)c(-c3ccccc3)c2C(=O)NCC(=O)N2CCCC2)c(C(=O)NCC(=O)N2CCCC2)c1-c1ccccc1`, the inhibition at 20 µM in data set [1] was 89%; in [2] it was 45%; in data set [3], 25%; in data set [4] it was under 10%.

With `Cc1sc([Se]c2sc(C)c(-c3cccc(Cl)c3)c2C(=O)NC(Cc2ccccc2)C(=O)N2CCCC2)c(C(=O)NC(Cc2ccccc2)C(=O)N2CCCC2)c1-c1cccc(Cl)c1` (stereo not drawn), the inhibition at 20 µM in data set [1] is 13%; in data set [2] it was 23%; in data set [3] it was 15%; in data set [4], 22%.

Turning to `Cc1sc(Br)c(C(=O)NC(CO)C(=O)N2CCCC2)c1-c1cccc(Cl)c1` (stereo not drawn), the half-maximal inhibitory concentration (IC50) in data set [10] worked out at 33.9 µM; in data set [12], 36.9 µM; in [13], 57.1 µM; in data set [15], 34.5 µM.

With `Cc1sc([Se]c2sc(C)c(-c3cccc(F)c3)c2C(=O)NC(CO)C(=O)N2CCCC2)c(C(=O)NC(CO)C(=O)N2CCCC2)c1-c1cccc(F)c1` (stereo not drawn), the inhibition at 20 µM in [1] is 85%; in data set [2] it was 27%; in [3] it was 61%; in data set [4], 25%.

Consider `Cc1sc([Se]c2sc(C)c(-c3ccccc3)c2C(=O)NC(C)C(=O)N2CCCC2)c(C(=O)NC(C)C(=O)N2CCCC2)c1-c1ccccc1` (stereo not drawn), for which the IC50 in [10] was determined as 15 µM; in [12], 15.1 µM; in [13] it was 10.5 µM; in data set [15], 8.19 µM. Also, the IC50 at 48 h in data set [11] was found to be 26.4 µM. Besides, the inhibition at 20 µM in data set [1] was found to be 90%; in data set [2], 82%; in data set [3], 69%; in data set [4] it was 72%.

As to `Cc1sc([Se]c2sc(C)c(-c3cccc(F)c3)c2C(=O)NC(C)C(=O)N2CCCC2)c(C(=O)NC(C)C(=O)N2CCCC2)c1-c1cccc(F)c1` (stereo not drawn), the 50% inhibitory concentration (IC50) in data set [10] turned out to be 13.2 µM; in data set [12] it was 14.4 µM; in data set [13], 14.3 µM; in [14], 0.835 µM; in data set [15], 8.11 µM. Moreover, the IC50 at 48 h in data set [11] is 29.3 µM. Further, the inhibition at 20 µM is 86% in [1], 77% in [2], 72% in [3] and 62% in data set [4].

In the case of `Cc1sc(Br)c(C(=O)NC(C)C(=O)N2CCCC2)c1-c1ccccc1` (stereo not drawn), the IC50 in [10] turned out to be 40.1 µM; in data set [12], 39.2 µM; in data set [13], 55 µM; in data set [15], 37 µM.

Regarding `COc1cc(C2c3cc4c(cc3C(OC3OC5COC(C)OC5C(O)C3O)C3COC(=O)C23)OCO4)cc(OC)c1O` (stereo not drawn), the 50% inhibitory concentration (IC50) in data set [18] stood at 3.5 µM; in data set [20] it was 9.4 µM. The selectivity ratio in data set [19] worked out at 0.5.

As to `O=c1[nH]cc(F)c(=O)[nH]1` [FLUOROURACIL], the IC50 in data set [10] was found to be 18.6 µM; in [12] it was 15.2 µM; in [13] it was 10.2 µM; in [15], 16.7 µM.

For `Cc1sc(Br)c(C(=O)NC(C)C(=O)N2CCCC2)c1-c1cccc(F)c1` (stereo not drawn), the half-maximal inhibitory concentration (IC50) in data set [10] was 44.6 µM; in data set [12], 47.7 µM; in data set [13] it was 49.4 µM; in data set [15] it was 31 µM.

Turning to `Cc1sc([Se]c2sc(C)c(-c3cccc(Cl)c3)c2C(=O)NC(C)C(=O)N2CCCC2)c(C(=O)NC(C)C(=O)N2CCCC2)c1-c1cccc(Cl)c1` (stereo not drawn), the inhibition at 20 µM in [1] is 90%; in [2], 38%; in [3], 70%; in [4], 13%.

Broadly, the inhibition is the change of the read-out against control, counted positive when it falls. The term IC50 denotes the concentration needed to halve the response being measured. Usually solubility stands for the dissolved amount per volume that the medium holds.

Source of the values: ChEMBL document CHEMBL5356985, “Development of trisubstituted thiophene-3-arboxamide selenide derivatives as novel EGFR kinase inhibitors with cytotoxic activity” (RSC Med Chem, 2023).
